Here are results for one compound from paper PMC6934184, “Selective DNA-PKcs inhibition extends the therapeutic index of localized radiotherapy and chemotherapy” (The Journal of Clinical Investigation, 2019).

The assay concerns the target T1, MAP2K1 (MEK1) S218D S222D (Homo sapiens, UniProt Q02750, S218D/S222D).
T1 construct: purchased Thermo Fisher Scientific (Life Technologies) SelectScreen
The assay can be described thus: SelectScreen LanthaScreen. The assay is classed as binding. The settings on record: read-out: % displacement. The procedure, abridged: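 NU5455 was profiled across the SelectScreen Broad panel of kinase activity and binding assays. Z'LYTE reactions such as CSF1R ran at apparent Km ATP, while the Adapta CAMK1 assay used ATP listed as 10. Values are given as percent.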
On the technique in general: In TR-FRET formats the signal depends on donor and acceptor labels being close together.

T1 sequence (Q02750 whole entry S218D/S222D): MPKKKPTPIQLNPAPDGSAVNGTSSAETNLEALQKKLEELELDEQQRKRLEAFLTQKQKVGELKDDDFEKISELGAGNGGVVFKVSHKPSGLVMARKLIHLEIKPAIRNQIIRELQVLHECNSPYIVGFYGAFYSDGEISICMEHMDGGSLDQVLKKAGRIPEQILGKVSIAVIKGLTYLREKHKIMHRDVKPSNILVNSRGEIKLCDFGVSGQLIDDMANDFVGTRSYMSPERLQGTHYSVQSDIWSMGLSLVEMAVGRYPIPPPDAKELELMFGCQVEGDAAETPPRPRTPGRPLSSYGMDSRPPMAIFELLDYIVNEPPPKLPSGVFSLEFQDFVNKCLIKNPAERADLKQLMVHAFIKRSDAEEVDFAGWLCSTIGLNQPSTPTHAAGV

Take `CN(C(=O)CN1CCOCC1)c1ccc2sc3c(-c4cccc5c(=O)cc(N6CC7CCC(C6)O7)oc45)cccc3c2c1` [NU5455]: the inhibition at 1 µM was -0.1%.
